US20200223839A1, “FLUORO-CONTAINING COMPOUNDS, USE AND PREPARATION THEREOF” (JIANGSU YINGKEBEITA YIYAOKEJI CO. LTD, priority 2017, published 2020)

What was measured:
[1] = test system: MDA-MB-468 cell line; assay: Anti-tumor activity against MDA-MB-468 cell line (CCK-8 test); type: cell-based; settings: Homo sapiens, MDA-MB-468, 72 h
Method: A cryo tube was removed from liquid nitrogen. As quickly as possible, the cells were thawed by placing the vial in a 37° C. water bath and gently shaking the vials. The cells were transferred to medium tube, which containing 5 mL medium, and were centrifuged at 1000 rpm for 6 min. The supernatant containing dead cells and cell debris was discarded. 1 mL of pre-warmed medium with 10% FBS was add and the solution was re-suspended. The plate was placed in 37° C. and 5% CO2 incubator. The medium was changed next day.
Cells in logarithmic growth stage were taken and culture medium was discarded. 1 mL 0.25% trypsin solution was added for twice. The trypsin solution was removed and the 0.5 ml 0.25% trypsin solution was added to the cell flask. The plate was placed in 37° C. and 5% CO2 incubator for a few minutes until the cells recovered. 1 mL medium was added to stop digestion. The liquid was transferred by pipette for experiment.
the cells were suspended and the medium was discarded. 1 mL 0.25% trypsin solution was added for twice and the trypsin digestion was centrifuged. The cells were suspended with the culture medium, count and adjusted to the appropriate concentration.
The cell suspension was added to the 96-well plate with a volume of 100 uL per well, as shown in Tab. 5, and was placed in 37° C., 5% CO2 incubator overnight.
Preparation of Compounds Working Solution.
The test compounds were dissolved in DMSO at 10 mM with sterile filter (0.22 um, nelon, JET). After filtering, the solution were continuously diluted by three times with DMSO. A total of six concentration were prepared, as shown below.
6 uL compound solution was added to 594 uL medium and the solution was added to 96-well plate as shown and cultured for 72 h in CO2 incubator.
A CCK-8 solution was prepared according to the instructions and the 96-well plate was taken out and the original medium discarded. 100 uL cck-8 solution was added to each well in the 96-well plate. Photoabsorption data were read by TECAN enzyme marker after a period of time.
IC (%)=[Ac-As]/[Ac-Ab]*100% • As: Experimental well (containing culture medium, cell, CCK-8 and compound); • Ac: Controlled well (containing culture medium, cell and CCK-8); • Ab: Blank well (Only containing medium and CCK-8).

[2] = test system: HCC1937; assay: Cell culture and cytotoxicity assay (CTG), HCC1937; type: cell-based; settings: Homo sapiens, HCC1937, exposure 72 hours
Method: (§1) The assayed compounds each was dissolved in DMSO with a final concentration of 10 mM or 40 mM and stored at −20° C. Tumor cell lines A549 (7,000 cells/well), BT474 (12,000 cells/well), MDA-MB-468 (12,000 cells/well), and HCC1937 (6,000 cells/well) were seeded on 96-well plates. And the cells were pre-incubated at 37° C./5% CO2 for 24 hours. The cells were exposed to different concentrations of the assay compounds (from 400 μM to 782 nM, from 200 μM to 391 nM, from 100 μM to 196 nM, and from 50 μM to 98 nM) for the following time:
(§2) After incubation, 100 μL from each well was discarded and CTG base (Proega, G7571, 50 μL) was added and the mixture was agitated for 2 minutes. The mixtures were stored in a dark room for 10 minutes and the viability was analyzed with Multiskan microplate reader.

[3] = In vivo mouse model, Hep3B, mice weights; settings: FIG. 9, dose of this group not given
Text: Hep3B cells (human liver cancer) were also studied in a mouse model. […] FIG. 9.

[4] = test system: A549; assay: Cell culture and cytotoxicity assay (CTG), A549; type: cell-based; settings: Homo sapiens, A549, exposure 72 hours
Method: as §1, §2

[5] = test system: BT474; assay: Cell culture and cytotoxicity assay (CTG), BT474; type: cell-based; settings: Homo sapiens, BT-474, BT474, exposure 96 hours
Method: as §1, §2

[6] = In vivo xenograft study, MDA-MB-468, mice weights; settings: MDA-MB-468 xenograft in BALB/c-nu mice, FIGS. 3 and 5
Method: (§3) MDA-MB-468 cells (human breast cancer) in its log growth phase were implanted in BALB/c-nu mice. When the tumor volume was approximately 50-150 mm^3, the mice were randomized into four groups, each include 8 mice. The four groups were treated with vehicle, Ref. 1, 4f, and Ref. 2, respectively, and the tumor sizes were measured two to three times each week and the mice were also weighted.

[7] = In vivo mouse model, MDA-MB-453, mice weights; settings: MDA-MB-453 mouse model, FIG. 7, dose of this group not given
Text: MDA-MB-453 cells (human breast cancer) were also studied in a mouse model. […] FIG. 7.

[8] = test system: MDA-MB-468 cells (human breast cancer) implanted in BALB/c-nu mice; assay: In vivo xenograft study, MDA-MB-468, tumor sizes; settings: MDA-MB-468 xenograft in BALB/c-nu mice, FIGS. 2 and 4
Method: as §3

[9] = test system: MDA-MB-468; assay: Cell culture and cytotoxicity assay (CTG), MDA-MB-468; type: cell-based, human; settings: Homo sapiens; MDA-MB-468, exposure 72 hours, CTG
Method: as §1, §2

Row | IC50 [1] | SMILES | IC50 [5] | IC50 [9] | other results
1 | 1.4 µM | COc1ccc(S(=O)(=O)Nc2nc3ccccc3nc2Nc2ccc3nsnc3c2)cc1F [Compound 9] | – | – | –
2 | 4.91 µM | COc1ccc(Cl)c(Nc2nc3ccccc3nc2NS(=O)(=O)c2cccc(NC(=O)C(C)(C)N)c2)c1 [Ref. 2, reference compound] | 25000 to 50000 nM | 12500 to 25000 nM | IC50 [2]: 50000 to 100000 nM; weight changes [3]: no difference in weight changes; IC50 [4]: 25000 to 50000 nM; weight changes of mice [6]: no significant weight changes; weight changes [7]: no difference in weight changes; anticancer activity (tumor sizes) versus vehicle [8]: no significant difference
3 | – | Cc1ccc(S(=O)(=O)Nc2nc3ccccc3nc2Nc2ccc3nsnc3c2)c(F)c1 [Compound 4, N-[3-(benzo[1,2,5]thiadiazol-5-ylamino)-quinoxalin-2-yl]-2-fluoro-4-methyl-benzenesulfonamide] | > 50000 nM | 4250 nM | IC50 [2]: 114000 nM
4 | 0.469 µM | O=S(=O)(Nc1nc2ccccc2nc1Nc1ccc2nsnc2c1)c1ccc(F)c(F)c1 [Compound 7] | – | – | –
5 | 0.811 µM | O=S(=O)(Nc1nc2ccccc2nc1Nc1ccc2nsnc2c1)c1ccc(Br)c(F)c1 [Compound 8] | – | – | –
6 | 2.67 µM | Cc1ccc(S(=O)(=O)Nc2nc3ccccc3nc2Nc2ccc3nsnc3c2)cc1 [Ref. 1, reference compound] | 28200 nM | 2060 nM | IC50 [4]: > 50000 nM; weight changes of mice [6]: no significant weight changes; anticancer activity (tumor sizes) versus vehicle [8]: no significant difference
7 | 7.09 µM | CCNc1ccc(S(=O)(=O)Nc2nc3ccccc3nc2Nc2ccc3nsnc3c2)cc1F [Compound 10] | – | – | –
